Results published in patent publication US20220403345A1, “A MAMMALIAN-AVIAN CHIMERIC MODEL SYSTEM” (INNOVO MIMETICS LIMITED, priority 2019, published 2022).

System: PEA2 ovarian cancer cell line
Assay: PEA2 matrix pellet tumor on egg CAM treated with Carboplatin
Type: in vivo
Settings: 400 μg Carboplatin intravenous injection at E13; tumor excised from E16 egg
Method: FIGS. 1A-1C are micrographs showing bright field images of a Matrigel® pellet formed comprising 3×10^5 cells of PEA2 ovarian cancer cell line. (1A) is an image of a liquid Matrigel® placed on ParafilmTM at 37° C. for 30 minutes and allowed to solidify before being placed on the CAM of an embryonic day 9 egg (E9; pellet circumference=3-5 mm). (1B) is an image of a tumor excised from an E16 egg following engraftment with a MATRIGEL® pellet, as shown in […]). […] (1C) is images of a low-passage ovarian cancer cell line derived from ascites liquid drained from a patient which was engrafted, and the resulting tumor was excised, fixed embedded, sectioned (7 μm) and stained with either (left) hematoxylin and eosin or (right) for expression of CD44 by immunohistochemistry (tumor diameter is 0.4 cm). The ovarian cancer cell line PEA2 was embedded in a matrix pellet by resuspending 3×10^5 PEA2 cells in 15 μl Matrigel®, on ice, and pipetting onto a solid surface (Parafilm) at 37° C. for 30 minutes (FIG. 1A). The Matrigel® pellet that formed was then placed on the CAM of an E9 egg, close to an underlying CAM blood vessel junction. It was not necessary to wound the CAM surface blood vessels in order to achieve a high rate of engraftment. […] Tissue sections (7 μm thick) were cut and analyzed by histology and immunohistochemistry for cell viability, proliferation and death (FIG. 1C).

## N.N.O=C([O-])C1(C(=O)[O-])CCC1.[Pt+2] [Carboplatin]
  tumor size compared to the original MATRIGEL pellet: shrunk in size
